TGI data for 27 compounds are collected here from PubChem BioAssay (NCI).

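Cells were grown in 96-well plates and exposed to each compound for 48 hours at five concentrations; endpoints were interpolated linearly between bracketing concentrations, or set to the highest concentration if not reached. TGI: total growth inhibition.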 A value given as a limit tells only on which side of the number the result lay.

What all share (assay): NCI-60 cell line screen, 48 h
Test [1] deals with DU-145 prostate.
Test [2] relates to HL-60(TB) leukemia.
Test [3] has as its system HOP-92 NSCLC.
For test [4], the system named is HT29 colon.
Test [5] has as its system LOX IMVI melanoma.
Test [6] has as its system NCI-H226 lung.
Test [7] deals with OVCAR-3 ovarian.
In test [8] the test system is SW-620 colon.
The test system of test [9] is U251 CNS.
In test [10] the test system is UO-31 renal.

Take `O=C(CNc1nccs1)Nn1cnc2ccc(S(=O)(=O)Nc3nccs3)cc2c1=O`: the TGI in test [1], in test [2], in test [3], in [4], in test [5] and in test [6] was over 100 µM in each case. Besides, the TGI in test [7], in test [8], in [9] and in [10] was over 100 µM each time.
Consider `Cc1ccc(S(=O)(=O)/N=C2/N(C)CCCS2(=O)=O)cc1`, for which the TGI in [1], in test [2], in test [3], in [4], in [5] and in [6] was over 100 µM throughout. Moreover, the TGI in [7], in [8], in test [9] and in test [10] was over 100 µM throughout.
Turning to `COCCOC(C)C(=O)C(O)S(=O)(=O)O` (stereo not drawn), the TGI in test [1], in test [2], in test [3], in test [4], in [6] and in test [7] was over 100 µM throughout. Also, the TGI in [8], in [9] and in [10] was over 100 µM each time.
Regarding `C/C(=N\NC(=O)CC#N)C(CN1CCCCC1)C(c1ccccc1)c1c(O)c2ccccc2oc1=O` (stereo not drawn), the TGI is over 100 µM in test [1]; 63.3 µM in [2]; 95.7 µM in test [3]; over 100 µM in test [4]; 40.1 µM in test [5]; over 100 µM in test [6]. In addition, the TGI in test [7], in [8], in [9] and in [10] was over 100 µM in each case.
For `CCCCCCCCCC(O)CC(=O)c1c(O)cccc1O` (stereo not drawn), the TGI was over 100 µM in [1]; 57.3 µM in test [2]; 64.8 µM in [3]; 43 µM in [4]; 46 µM in test [5]; 34.9 µM in test [6]. Also, the TGI was 41.9 µM in test [7], over 100 µM in test [8], over 100 µM in test [9] and 38.6 µM in test [10].
Take `CNC(=O)c1cc2nc3ccccc3c(=O)n2c2ccccc12`: the TGI in test [1], in test [2], in test [3], in test [4], in test [5] and in test [6] was over 10 µM throughout. The TGI in [7], in test [8], in test [9] and in test [10] was over 10 µM throughout.
Regarding `COc1cc(S(=O)(=O)Nc2ccc(-c3csc(N4C(=O)C(Cl)C4c4cccc(Oc5ccccc5)c4)n3)cc2)ccc1Cl` (stereo not drawn), the TGI is 52.1 µM in test [1]; 41.7 µM in test [2]; 37.4 µM in test [3]; over 100 µM in [4]; 4.89 µM in test [5]; 39.8 µM in test [6]. Besides, the TGI in test [7] was over 100 µM; in [8] it was over 100 µM; in test [10], 43.9 µM.
For the compound `CC(C(=O)NCCNC(=O)CCC(=O)N(C)O)C(=O)NCCNC(=O)CCC(=O)N(C)O`, the TGI in test [1], in test [2], in [3], in test [4], in test [5] and in [6] was over 100 µM in each case. Besides, the TGI in [7], in test [8], in test [9] and in test [10] was over 100 µM throughout.
In the case of `Cn1c(=O)c2c(nc3n2CCC(=O)N3CCCCl)n(C)c1=O`, the TGI in test [1], in test [2], in test [3], in test [4], in test [5] and in test [6] was over 100 µM each time. Further, the TGI in test [7], in test [8], in test [9] and in test [10] was over 100 µM in each case.
With `CCOC(=O)CCC(NC(=O)c1ccc(Nc2nc3cc(C(F)(F)F)ccc3nc2C(=O)OCC)cc1)C(=O)OCC` (stereo not drawn), the TGI is over 100 µM in test [1]; over 100 µM in test [2]; 9.95 µM in [3]; 18.7 µM in [4]; 36.2 µM in [5]; 26.7 µM in test [7]. The TGI in test [8] worked out at 81.6 µM; in test [9], 23.3 µM; in test [10], 24.6 µM.
Consider `CSc1c2c(C)n[nH]c2nn1-c1ccccc1`, for which the TGI in test [1] is over 100 µM; in test [2], 93.6 µM; in [4] it was over 100 µM; in test [5] it was over 100 µM; in test [6], over 100 µM; in test [7] it was over 100 µM. For the same compound, the TGI in [8], in [9] and in test [10] was over 100 µM each time.
For the compound `Cc1ccc(/C(O)=C/c2nc3cccnc3[nH]c2=O)cc1`, the TGI in test [1], in [2], in test [3], in test [4], in test [5] and in [6] was over 100 µM in each case. The TGI in [7], in test [9] and in [10] was over 100 µM each time.
With `COc1cc(NS(C)(=O)=O)ccc1NCc1cnc2ccc3[nH]cccc3c12`, the TGI is over 70.3 µM in test [1]; 18.3 µM in test [2]; 93.9 µM in test [3]; 73.9 µM in [4]; 63.4 µM in test [5]; 35.6 µM in test [6]. Further, the TGI in [7] was 53.2 µM; in test [8], over 92 µM; in test [9], over 81.2 µM; in test [10] it was 59 µM.
For `CC(=O)NNC(=S)/N=C\c1c(O)c2ccccc2oc1=O`, the TGI in test [1], in [2], in test [4], in test [5], in [6] and in test [7] was over 100 µM in each case. Besides, the TGI in [8], in test [9] and in [10] was over 100 µM throughout.
For the compound `C/C(=N/NC(=S)N(C)C)c1ccccc1O`, the TGI was over 100 µM in test [1]; over 51.9 µM in test [2]; over 100 µM in [3]; over 100 µM in test [4]; over 75.1 µM in [5]; over 66.3 µM in test [6]. Moreover, the TGI was over 26.3 µM in test [7], over 100 µM in test [8], over 100 µM in test [9] and over 100 µM in test [10].
On to `CCNC(=O)NNc1ncnc2c1c(-c1ccc(Cl)cc1)cn2-c1ccc(C)cc1`, for which the TGI in test [1] worked out at 44.9 µM; in [2], 34.7 µM; in [3], 34 µM; in test [4], 34 µM; in test [5], 36.4 µM; in test [6], 37.9 µM. Besides, the TGI in test [7] worked out at 33.6 µM; in test [8] it was 45 µM; in [9], 31.3 µM; in test [10], 28.3 µM.
For `CC(C)(C)c1ccc(O)c(C(c2ccc([N+](=O)[O-])cc2)c2cc(C(C)(C)C)ccc2O)c1`, the TGI in test [1] is 6.14 µM; in [2], 3.95 µM; in test [3], 3.7 µM; in test [4] it was 4.47 µM; in [6], 3.51 µM; in [7] it was 3.25 µM. The TGI was determined as 4.71 µM in test [8], 4.81 µM in [9] and 3.52 µM in test [10].
As to `Oc1cc(Cl)cc2cc(Cl)cnc12`, the TGI in test [1] was over 100 µM; in test [2] it was 0.902 µM; in [3], 74.1 µM; in test [4] it was over 100 µM; in test [5] it was 13.1 µM; in test [6], 92.2 µM. In addition, the TGI in [7] was 5.43 µM; in test [8], over 100 µM; in test [9], over 100 µM; in test [10] it was 20.5 µM.
On to `CC(=O)OC12CC(C(F)(F)F)(C(F)(F)F)OC1(OC(C)=O)CC(C(F)(F)F)(C(F)(F)F)O2` (stereo not drawn), for which the TGI in test [1] was 70.4 µM; in test [2], 11.3 µM; in [4] it was over 100 µM; in test [5], 34.9 µM; in test [6], over 100 µM; in [7], over 100 µM. Further, the figures for the TGI in test [8], in [9] and in test [10] were over 100 µM, 19.2 µM and 13.3 µM, respectively.
For the compound `COC(=O)[C@H]1[C@@H](O)[C@@]2(O)c3c(OC)cc(OC)cc3O[C@@]2(c2ccc3c(c2)OCO3)[C@@H]1c1ccccc1`, the TGI was 4.51 µM in test [1]; 0.763 µM in test [2]; over 50 µM in [3]; 0.273 µM in [4]; 0.014 µM in test [5]; 3.23 µM in test [6]. Besides, the TGI is 2.8 µM in test [7], over 22.2 µM in test [8], over 50 µM in [9] and 0.0223 µM in [10].
As for `C=CCOC(=O)c1c(C)n([O-])c2cc(Cl)c(Cl)cc2[n+]1=O`, the TGI was over 100 µM in [1]; 48.7 µM in [2]; 53.1 µM in test [3]; 36.8 µM in [4]; 32.9 µM in [5]; 38.9 µM in test [6]. Also, the TGI was 40.8 µM in [7], over 100 µM in test [9] and 59.8 µM in test [10].
`O=C1C(C(c2ccc([N+](=O)[O-])cc2)N2CCOCC2)=C(O)C(c2ccccc2)N1c1ccccc1` (stereo not drawn): the TGI in [1], in test [2], in test [4], in test [5], in test [6] and in [7] was over 10 µM each time. Also, the TGI in test [8], in test [9] and in [10] was over 10 µM in each case.
With `CCn1c(-c2ccc(OC)cc2)nc2c1C(=O)c1ccccc1C2=O`, the TGI in test [1], in test [2], in test [3], in test [4], in test [6] and in test [7] was over 100 µM in each case. The TGI in test [8] and in test [9] was over 100 µM in each case.
Regarding `O=C(OCC1CCCN2CCCCC12)c1cccnc1` (stereo not drawn), the TGI in test [1], in [2], in [3], in test [4], in [5] and in [6] was over 100 µM each time. The TGI in test [8], in test [9] and in [10] was over 100 µM throughout.
Regarding `C[C@]12C(=O)C=CCC1=CC[C@@H]1[C@@H]2[C@H]2CC3(O)C(=O)O[C@@]4(C)[C@H]5C[C@@]6(C)[C@@H]7[C@@]2(O)[C@]1(OC[C@H]6C(=O)O5)O[C@]734` (stereo partly drawn), the TGI was over 100 µM in test [1]; over 100 µM in [2]; over 100 µM in test [3]; over 100 µM in [4]; 75.5 µM in test [5]; over 100 µM in test [8]. Moreover, the TGI in test [9] and in test [10] was over 100 µM each time.
Turning to `CCOC(=O)C1(C#N)C2(C#N)C(N)=NC(ON=C(C)C)(ON=C(C)C)C12C#N` (stereo not drawn), the TGI in test [1], in [2], in test [3], in test [4], in test [5] and in test [6] was over 100 µM in each case. The TGI in [8], in test [9] and in test [10] was over 100 µM each time.
For the compound `Nc1nc2c(c(-c3ccccc3Cl)n1)COC/C2=C\c1ccccc1Cl`, the TGI in [1] came to 32.6 µM; in [2] it was 25.5 µM; in [3], 29 µM; in test [5], 36.9 µM; in test [6], 39.2 µM; in [7], 31.2 µM. In addition, the TGI in [8] came to 31.8 µM; in test [9], 31.6 µM; in [10] it was 32 µM.
